Counter-ions that a name gives are not always drawn.
Molecular target: T1, human HSD17B13 (Homo sapiens, UniProt Q7Z5P4)
T1 sequence (Q7Z5P4 20-300): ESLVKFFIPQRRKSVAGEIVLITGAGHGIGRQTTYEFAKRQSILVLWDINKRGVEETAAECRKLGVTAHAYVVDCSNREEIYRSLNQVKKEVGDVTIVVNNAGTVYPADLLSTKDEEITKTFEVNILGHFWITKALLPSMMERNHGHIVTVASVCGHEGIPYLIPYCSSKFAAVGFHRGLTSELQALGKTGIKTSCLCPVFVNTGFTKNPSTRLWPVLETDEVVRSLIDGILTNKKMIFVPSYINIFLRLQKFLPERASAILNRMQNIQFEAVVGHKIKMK
Test: Substrate screening of steroid and bioactive lipid libraries against purified recombinant HSD17B13 (NADH-linked luciferase assay)
Assay type: biochemical
Conditions: for HSD17B13 Enzymatic Activity Relative Light Units: 500 μM NAD+, 100 ng enzyme, 3 hours at 23° C.; for HSD17B13 Enzymatic Activity Percent Estradiol Control: normalized to 50 μM estradiol after subtraction of 5% DMSO
Method: To understand the functional consequences of premature truncation of the HSD17B13 protein due to rs72613567:TA (the associated variant, rs72613567, is an insertion of an adenine adjacent to the donor splice site of exon six (TA allele)), the enzymatic activity of isoforms A and D was evaluated in vitro using recombinant protein and nicotinamide […] dinucleotide as cofactor. Reactions were performed in a final volume of 40 μl of assay buffer (0.2 M Tris-HCl, pH 7.5) which contained 500 μM NAD^+, 5 μM bioactive lipid or 50 μM steroid (all in a final concentration of 5% DMSO), and 100 ng of recombinant human HSD17B13. Reactions were incubated for 3 hours, at 23° C., after which an equal volume detection reagent was added. Following a 1 hour incubation at 23° C., the relative light units (RLUs) were measured on an Envision Plate Reader (Perkin Elmer). Raw RLU values were normalized as percent of control (50 μM estradiol) following subtraction of negative control (5% DMSO) using the following formula: Percent of control (POC)=100×(Sample (RLU)−Negative CTRLaverage)/(Positive CTRLaverage−Negative CTRLaverage).

[1] = Bioactive Lipid Library, 5 μM bioactive lipid (Estradiol Control 50 μM)
[2] = Bioactive Lipid Library, 5 μM bioactive lipid

Compound | HSD17B13 Enzymatic Activity Relative Light Units [1] | HSD17B13 Enzymatic Activity Percent Estradiol Control [2] | HSD17B13 Enzymatic Activity Relative Light Units (Steroid Library, 50 μM steroid) | HSD17B13 Enzymatic Activity Percent Estradiol Control (Steroid Library, 50 μM steroid)
CCCCC/C=C\C=C\[C@H](O)CCCCCCCCCC(=O)O (racemic) [(±)11-HEDE] | 1334080 RLU | 77.87% |  | 
CC/C=C\C/C=C\C/C=C\C=C\C(O)C/C=C\CCCC(=O)O (racemic) [(±)8-HEPE] | 472800 RLU | 13.83% |  | 
CC/C=C\C/C=C\C=C\C(O)C/C=C\C/C=C\CCCC(=O)O (racemic) [(±)11-HEPE] | 791920 RLU | 37.56% |  | 
CCCCC/C=C\C/C=C\CC(O)/C=C/C=C\CCCC(=O)O (racemic) [(±)9-HETE] | 1110120 RLU | 61.22% |  | 
CC/C=C\C/C=C\C/C=C\C/C=C\C=C\C(O)C/C=C\CCC(=O)O (racemic) [(±)7-HDHA] | 361320 RLU | 5.54% |  | 
CCCCCC(=O)/C=C/[C@@H]1[C@H](C/C=C\CCCC(=O)O)[C@@H](O)C[C@H]1O [8-iso-15-keto Prostaglandin F2α] | 312360 RLU | 2.31% |  | 
CCCCC[C@H](O)/C=C/C=C\C=C\C=C\[C@H](O)[C@@H](O)CCCC(=O)O [6(S)-Lipoxin A4] | 383000 RLU | 7.90% |  | 
O=C(CCC/C=C\C/C=C\C/C=C\C/C=C\CCCCCO)NCCO [20-HETE Ethanolamide] | 879760 RLU | 41.89% |  | 
CCCCC[C@H](O)/C=C/[C@H]1OC(O)C[C@H](O)[C@@H]1CCCCC(=O)O (stereo partly drawn) [2,3-dinor Thromboxane B1] | 364840 RLU | 3.01% |  | 
CC1(C)[C@@H](O)CC[C@]2(C)[C@H]3C(=O)C=C4[C@@H]5C[C@@](C)(C(=O)O)CC[C@]5(C)CC[C@@]4(C)[C@]3(C)CC[C@@H]12 [18beta-Glycyrrhetinic acid] |  |  | 32720 RLU | −2.23%
Cholesteryl Linoleate Hydroperoxides | 256120 RLU | −2.28% |  | 
C[C@]12CC[C@@H]3c4ccc(O)cc4CC[C@H]3[C@@H]1CCC2=O [Estrone] |  |  |  | 0.45%
CCCCC[C@H](O)/C=C/C=C\C/C=C\C/C=C\CCCC(=O)NCCO [15(S)-HETE Ethanolamide] | 535680 RLU | 19.97% |  | 
CCCCCC(O)C=CC1OC(=O)CC(O)C1CC=CCCCC(=O)O (stereo not drawn) [11-dehydro Thromboxane B2] | 349160 RLU | 5.22% |  | 
CCCCCC(=O)CC[C@@H]1[C@H](C/C=C\CCCC(=O)O)[C@@H](O)C[C@H]1O [8-iso-13,14-dihydro-15-keto Prostaglandin F2α] | 212520 RLU | −5.58% |  | 
CCCCCCCC\C=C/C=C/C=C/[C@@H]1O[C@H]1CCCC(=O)OC [Leukotriene A3 methyl ester] | 990560 RLU | 55.92% |  | 
O=P(O)(O)O[C@@H]1[C@H](O)[C@H](O)[C@@H](OP(=O)(O)O)[C@H](OP(=O)(O)O)[C@H]1O [D-myo-Inositol-1,4,5-triphosphate (potassium salt)] | 358400 RLU | 2.52% |  | 
CCC1OC1C/C=C\C/C=C\C/C=C\C/C=C\CCCC(=O)O (racemic) [(±)17(18)-EpETE] | 316240 RLU | 2.19% |  | 
C[C@]12CCC(=O)C(O)=C1CC[C@@H]1[C@@H]2CC[C@]2(C)C(=O)CC[C@@H]12 [Formestane] |  |  |  | 0.63%
CCCCC/C=C\C[C@@H]1[C@H](/C=C/C(O)CCCC(=O)O)[C@@H](O)C[C@H]1O (stereo partly drawn) [5-iPF2α-VI] | 293200 RLU | 0.80% |  | 

Compound | HSD17B13 Enzymatic Activity Relative Light Units [1] | HSD17B13 Enzymatic Activity Percent Estradiol Control [2] | HSD17B13 Enzymatic Activity Relative Light Units (Steroid Library, 50 μM steroid) | HSD17B13 Enzymatic Activity Percent Estradiol Control (Steroid Library, 50 μM steroid)
CCCCC/C=C\C/C=C\C/C=C\C=C\C(=O)CCCC(=O)O [5-OxoETE] | 261280 RLU | −1.90% |  | 
O=P(O)(O)OC1[C@@H](OP(=O)(O)O)[C@H](O)C(O)[C@@H](O)[C@H]1OP(=O)(O)O (stereo partly drawn) [D-myo-Inositol-3,4,5-triphosphate (sodium salt)] | 400520 RLU | 5.70% |  | 
CCCCC/C=C\C=C\[C@H](O)C/C=C\C/C=C\CCCC(=O)O [11(R)-HETE] | 1064120 RLU | 57.80% |  | 
CCCCC[C@H](O)/C=C/[C@H]1CC2CC(C2)[C@@H]1C/C=C\CCCC(=O)O [Carbocyclic Thromboxane A2] | 309000 RLU | 2.05% |  | 
CCCCC/C=C\C[C@@H](O)/C=C/C=C/C=C/[C@@H](O)CCCC(=O)O (relative stereo) [6-trans Leukotriene B4] | 1209480 RLU | 68.61% |  | 
O=P(O)(O)OC1[C@@H](O)[C@@H](O)C(OP(=O)(O)O)[C@H](O)[C@H]1O (stereo partly drawn) [D-myo-Inositol-1,4-diphosphate (sodium salt)] | 439280 RLU | 8.63% |  | 
CCCCCC(O)C(O)C/C=C\C/C=C\C/C=C\CCCC(=O)O (racemic) [(±)14(15)-DiHET] | 403560 RLU | 5.93% |  | 
CCCCC[C@H](O)/C=C/[C@@H]1[C@@H](CCCCCCC(=O)O)[C@@H]2C[C@H]1OO2 [Prostaglandin H1] | 145840 RLU | −10.85% |  | 
Ptdlns-(4,5)-P2 (1,2-dipalmitoyl) (ammonium salt) | 24120 RLU | −22.73% |  | 
Androstanolone acetate |  |  | 200560 RLU | 0.70%
C[C@]12CCC(=O)C=C1CC[C@@H]1[C@@H]2[C@@H](O)C[C@@]2(C)[C@H]1CC[C@]2(O)C(=O)CO [Cortisol] |  |  | 40080 RLU | −2.10%
CC/C=C\C/C=C\C/C=C\C/C=C\CC1OC1CCCC(=O)OC (stereo not drawn) [5(6)-EpETE methyl ester] | 337400 RLU | 0.93% |  | 
CC/C=C\C/C=C\C=C\[C@@H](O)C/C=C\C/C=C\CCCC(=O)O [11(S)-HEPE] | 1525600 RLU | 92.11% |  | 
CC/C=C\C[C@H](O)/C=C/[C@H]1C(=O)C[C@H](O)[C@@H]1C/C=C\CCCC(=O)O [Prostaglandin D3] | 298960 RLU | 1.25% |  | 
C[C@]12C/C(=C/O)C(=O)C[C@@H]1CC[C@@H]1[C@@H]2CC[C@@]2(C)[C@H]1CC[C@]2(C)O [Oxymetholone] |  |  | 92000 RLU | −1.20%
O=P([O-])(O)O[C@@H]1[C@@H](O)[C@H](O)[C@H](O)[C@H](O)[C@H]1OP(=O)([O-])O.[Na+].[Na+] [D-myo-Inositol-4,5-diphosphate (sodium salt)] | 281680 RLU | −3.27% |  | 
CCCCC[C@H](O)/C=C/C=C\C/C=C\CCCCC(=O)O [13(S)-HOTrE(γ)] | 458840 RLU | 12.79% |  | 
CCCCC/C=C\C[C@@H](O)/C=C/C=C\C/C=C\CCCC(=O)O [12(R)-HETE] | 1932320 RLU | 122.36% |  | 
CC/C=C\C/C=C\C=C\[C@H](O)C/C=C\C/C=C\CCCC(=O)O [11(R)-HEPE] | 940920 RLU | 48.64% |  | 
CCCCCC(=O)CC[C@@H]1[C@@H](C/C=C\CCCC(=O)O)[C@@H](O)C[C@@H]1O [11β-13,14-dihydro-15-keto Prostaglandin F2α] | 310000 RLU | 2.13% |  | 
